Results as given in US20260263429A1, “INHIBITORS OF CA 2+/CALMODULIN-DEPENDENT PROTEIN KINASE II (CAMKII) THAT DO NOT INHIBIT LONG-TERM POTENTIATION (LTP) INDUCTION AND THERAPEUTIC USES THEREOF” (The Regents of the University of Colorado, A Body Corporate, priority 2023, published 2026).

Key:
[1] = target: CaMKII F89G (Homo sapiens, UniProt Q9UQM7, F89G); assay: In vitro kinase assay with CaMKII F89G mutant; format: biochemical; conditions: 10 μM NM-PP1
Method: (§1) This conclusion also predicts that the LTP stimulus-induced movement of CaMKII to excitatory synapses should be (i) impaired in the CaMKII F89G mutant; but (ii) normalized by pharmacogenetic rescue with NM-PP1. Indeed, both predictions were observed experimentally (FIGS. 4D-4E).
In vitro phosphorylation assays. CaMKII-mediated phosphorylation of GluA1 S831 was measured by in vitro kinase reaction with purified GST-GluA1 c-terminal tail. Reactions contained 40 nM CaMKII (or water for negative controls), 1 μM GST-GluA1, 50 mM PIPES pH 7.1, 2 mM CaCl2), 10 mM MgCl2, 1 μM calmodulin, 1-4 mM ATP, and 1 PM of okadaic acid. Reactions were done at 30° C. for 20 s; reactions were stopped by adding SDS-loading buffer and incubation in a boiling water bath for 5 min. GST, phospho-S831, CaMKII, phospho-T286, or phospho-S1303 were detected in the samples by immunoblot analysis.

[2] = target: T1, CaMKII F89G binding to GluN2B in HEK cells (Homo sapiens, UniProt Q9UQM7, F89G); assay: Ionomycin-induced co-localization of GFP-CaMKII F89G and mCh-GluN2B in HEK cells; format: cell-based; conditions: 10 μM NM-PP1
T1 construct: expressed in transfected cells; host or cells: HEK cells
T1 sequence (Q9UQM7 whole entry F89G): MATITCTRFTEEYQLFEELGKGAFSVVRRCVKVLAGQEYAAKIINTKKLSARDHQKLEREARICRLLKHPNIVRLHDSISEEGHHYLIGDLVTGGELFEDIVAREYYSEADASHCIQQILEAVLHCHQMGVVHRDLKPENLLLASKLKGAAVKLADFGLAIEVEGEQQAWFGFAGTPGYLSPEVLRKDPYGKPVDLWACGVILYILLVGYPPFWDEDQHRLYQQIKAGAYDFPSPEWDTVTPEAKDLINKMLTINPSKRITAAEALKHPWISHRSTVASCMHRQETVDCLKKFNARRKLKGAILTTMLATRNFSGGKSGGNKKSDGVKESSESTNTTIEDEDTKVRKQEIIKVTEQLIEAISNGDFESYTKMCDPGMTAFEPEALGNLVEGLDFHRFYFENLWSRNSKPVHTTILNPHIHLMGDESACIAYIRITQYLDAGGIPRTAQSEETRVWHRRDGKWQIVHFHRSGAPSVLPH
T1 sequence (Q13224 836-1484 S1303A partner limits assumed): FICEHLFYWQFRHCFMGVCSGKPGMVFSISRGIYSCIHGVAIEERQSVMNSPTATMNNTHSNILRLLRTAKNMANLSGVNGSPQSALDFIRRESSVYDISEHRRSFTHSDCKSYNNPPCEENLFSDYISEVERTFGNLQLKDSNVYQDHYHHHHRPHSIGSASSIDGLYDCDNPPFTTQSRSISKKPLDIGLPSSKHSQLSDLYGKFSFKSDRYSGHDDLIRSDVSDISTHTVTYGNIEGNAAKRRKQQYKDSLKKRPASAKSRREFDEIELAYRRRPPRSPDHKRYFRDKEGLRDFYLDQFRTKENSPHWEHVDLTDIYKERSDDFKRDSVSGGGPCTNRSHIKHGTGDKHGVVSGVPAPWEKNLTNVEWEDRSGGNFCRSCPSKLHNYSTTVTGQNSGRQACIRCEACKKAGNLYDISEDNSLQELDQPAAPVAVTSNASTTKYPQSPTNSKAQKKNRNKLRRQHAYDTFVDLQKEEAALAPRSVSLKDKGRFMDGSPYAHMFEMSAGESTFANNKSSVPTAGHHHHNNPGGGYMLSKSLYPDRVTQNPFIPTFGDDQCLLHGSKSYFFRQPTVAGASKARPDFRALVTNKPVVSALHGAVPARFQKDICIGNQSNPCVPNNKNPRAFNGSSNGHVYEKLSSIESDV
Method: as §1
Live imaging of HEK cells. HEK cells were grown and transfected with expression vectors for GFP-CaMKII mutants and pDisplay-mCh-GluN2B-c tail (2BC) as previously described; the GluN2B construct used included a S1303A mutation to avoid potential complications by differential phosphorylation of this regulatory site in the different conditions with or without kinase inhibitors. GFP-CaMKII colocalization with GluN2B in response to a Ca^2+ stimulus induced by 10 μM ionomycin was monitored for 5-10 min at 32° C. in imaging buffer (0.87× Hanks Balanced Salt Solution, 25 mM Hepes pH 7.4, 2 mM glucose, 2 mM CaCl2), 1 mM MgCl2) by fluorescence microscopy. Images were acquired on a Zeiss Axiovert 200M equipped with a climate control chamber, using SlideBook software (Intelligent Imaging Innovations). Colocalization analysis was performed by calculating the Pearson's correlation (correlation index) of pDisplay-mCh-2BC and GFP-CaMKII within the cytoplasm of HEK cells after background subtraction.

[3] = tested on: CaMKIIα binding to GST-GluN2B-c
Method: In a series of exemplary methods, an in vitro kinase assay was used where purified CaMKIIα is incubated at 30° C. with GST-GluA1 alongside ATP. CaMKIIα normally phosphorylates S831 on the GluA1 subunit and this phosphorylation can be measured as a readout of CaMKIIα enzymatic activity (see e.g., FIG. 8B). […] In another exemplary method, binding of purified CaMKIIα to immobilized GST-GluN2B-c was induced by Ca^2+/CaM in the presence of a vehicle (none), 4 mM ADP or with […] AS105. […] At the same time, two exemplary methods were performed to observe ionomycin or chemical LTP (cLTP) induced co-localization of CaMKII and GluN2B either in HEK293 cells co-expressing GFP-CaMKII and mCherry-2BC or dissociated rat hippocampal cultures expressing GFP-CaMKII and mCh-PSD95 intrabody. HEK293 cells, incubating with vehicle or 10 μM AS105, were subjected to ionomycin. Hippocampal cultures, also incubating with either vehicle or 10 μM AS105, were treated with a chemical LTP (cLTP) stimulus (e.g., 100 μM glutamate, 10 μM glycine for 45 seconds). Confocal microscopy images were taken before and after each stimulus.
One possible mechanism by which AS283 could enhance GluN2B binding more than ATP is by suppressing CaMKII-mediated phosphorylation of GluN2B at S1303, as this phosphorylation within the CaMKII binding site on GluN2B reduces CaMKII binding.
Bound CaMKII was measured via immunoblot.

[4] = tested on: GFP-CaMKII synaptic enrichment (mCh-PSD95 intrabody); assay: cLTP-induced CaMKII movement to excitatory synapses in dissociated rat hippocampal cultures; format: cell-based; conditions: 10 μM inhibitor; cLTP 100 μM glutamate, 10 μM glycine, 45 seconds

Row | Compound | residual enzymatic activity of CaMKII F89G [1] | binding of CaMKII F89G to GluN2B in HEK cells after ionomycin [2] | CaMKII binding to immobilized GluN2B compared to a control without nucleotide or inhibitor ([3]; 10 μM inhibitor, EGTA wash, immunoblot) | CaMKII binding to GluN2B in the presence of ADP ([3]; 1 mM ADP, AS283 10 μM) | Ca2+/CaM-induced CaMKII binding to immobilized WT GluN2B when ATP was substituted ([3]; AS283 versus 1 mM ATP) | enhancing effect on CaMKII binding to GluN2B S1303A mutant compared with ATP ([3]; phosphorylation-incompetent GluN2B S1303A) | cLTP-induced CaMKII co-localization/movement to excitatory synapses in hippocampal neurons [4]
1 | CC(C)(C)n1nc(Cc2cccc3ccccc23)c2c(N)ncnc21 [NM-PP1] | still further reduced | fully enabled binding |  |  |  |  | 
2 | NCCNc1cccc(-c2ccnc3[nH]c4ccccc4c23)c1 [AS283] |  |  | increased CaMKII binding | did not inhibit CaMKII binding to GluN2B | significantly enhanced | indistinguishable | failed to inhibit CaMKII binding to GluN2B
